Experiments:
[1] = tested on: P. aeruginosa PAO1; assay: Real-time growth inhibition curves, P. aeruginosa; format: cell-based; conditions: optical density during 18 h culturing
[2] = tested on: C. neoformans ATCC 208821; assay: MIC, CO-ADD antifungal assay, C. neoformans; format: cell-based, Cryptococcus neoformans; conditions: Cryptococcus neoformans, ATCC208821, mean (n = 2)
Experimental: The susceptibility of bacterial strains S. aureus (ATCC 25923), E. coli (ATCC 25922), and P. aeruginosa (ATCC 27853 or PAO1) to antibiotics and compounds was determined using reported protocols. Additional antimicrobial evaluation against MRSA (ATCC 43300), Klebsiella pneumoniae (ATCC 700603), A. baumannii (ATCC 19606), Candida albicans (ATCC 90028), and Cryptococcus neoformans (ATCC 208821) was undertaken at the Community for Open Antimicrobial Drug Discovery at The University of Queensland (Australia) according to their standard protocols as reported previously. […]
2.3. Antimicrobial Assays
The susceptibility of bacterial strains S. aureus (ATCC 25923), E. coli (ATCC 25922), and P. […]
baumannii (ATCC 19606), Candida albicans (ATCC 90028), and Cryptococcus neoformans (ATCC 208821) was undertaken at the Community for Open Antimicrobial Drug Discovery at The University of Queensland (Australia) according to their standard protocols as reported previously. […]
For the antifungal assay, fungi strains were cultured for 3 days on YPD agar at 30 °C. A yeast suspension of 1 × 106 to 5 × 10^6 CFU/mL was prepared from five colonies. These stock suspensions were diluted with yeast nitrogen base (YNB) (Becton Dickinson, 233520) broth to a final concentration of 2.5 × 10^3 CFU/mL. The compounds were serially diluted 2-fold across the wells of 96-well plates (Corning 3641, non-binding surface), with compound concentrations ranging from 0.015 to 64 µg/mL and final volumes of 50 µL, plated in duplicate. Then, 50 µL of the fungi suspension that was previously prepared in YNB broth to the final concentration of 2.5 × 10^3 CFU/mL was added to each well of the compound-containing plates, giving a final compound concentration range of 0.008 to 32 µg/mL. Plates were covered and incubated at 35 °C for 36 h without shaking. C. albicans MICs were determined by measuring the absorbance at OD530. For C. neoformans, resazurin was added at 0.006% final concentration to each well and incubated for a further 3 h before MICs were determined by measuring […]
Colistin and vancomycin were used as positive bacterial inhibitor standards for Gram-negative and Gram-positive bacteria, respectively. Fluconazole was used as a positive fungal inhibitor standard for C. albicans and C. neoformans. The antibiotics were provided in […], with 3 above and 3 below its MIC value, and plated into the first 8 wells of column 23 of the 384-well NBS plates. The quality control (QC) of the assays was determined by the antimicrobial controls and the Z'-factor (using positive and negative controls). Each plate was deemed to fulfil the quality criteria (pass QC) if the Z'- […]
inhibition at their highest concentration, and no growth inhibition at their lowest concentration.
2.4. Determination of the MICs of Antibiotics in the Presence of Synergizing Compounds

[3] = tested on: E. coli ATCC 25922; assay: Antibiotic enhancement of erythromycin; format: cell-based
Experimental: [Worded in the source for another target; used here, by the source, with some conditions changed.] Antibiotic restoring enhancer concentrations were determined using reported protocols (see Supplementary File).
Briefly, restoring enhancer concentrations were determined with an inoculum of 5x10^5 CFU in 200 µL of MHB containing two-fold serial dilutions of each derivative in the presence of doxycycline at 4.5 […]
The lowest concentration of the polyamine
These measurements were independently repeated in triplicate.
Outer membrane permeabilization was measured using nitrocefin as a chromogenic substrate of periplasmic β-lactamase. Ten milliliters of MH broth were inoculated with 0.1 mL of an overnight culture of PAO1 bacteria and grown at 37°C until the OD600 reached 0.5. The remaining steps were performed at room temperature. Cells were recovered by centrifugation (4000 rpm for 20 min) and washed once in 20 mM potassium phosphate buffer (pH 7.2) containing MgCl2 (1 mM). After a second centrifugation, the pellet was resuspended and adjusted to OD600 of 0.5. Then, 50 µL of the desired compound was added to 100 µL of the cell suspension to obtain a final concentration varying from 3.9 µM to 250 µM. Fifty microliters of nitrocefin were then added to obtain a final concentration of 50 µg/mL. Nitrocefin hydrolysis was monitored spectrophotometrically by measuring the increase in absorbance at 490 nm. Assays were performed in 96-well plates using a M200 Pro Tecan […]
HEK293 cells were counted manually in a Neubauer hemocytometer and plated at a density of 5,000 cells/well into each well of the 384-well plates containing the 25x (2 µL) concentrated compounds [26,27]. The medium used was Dulbecco's modified Eagle’s medium (DMEM), supplemented with 10% fetal bovine serum (FBS). Cells were incubated together with the compounds for 20 h at 37 °C, 5% CO2.
To measure cytotoxicity, 5 µL (equals 100 µM final) of resazurin was added to each well after incubation and incubated for further 3 h at 37 °C with 5% CO2. After the final incubation, fluorescence intensity […]
reader. CC50 values (concentration at 50% cytotoxicity) were calculated by normalizing the fluorescence readout, with 74 µg/mL tamoxifen as negative control (0%) and normal cell growth as positive control (100%). The concentration-dependent percentage cytotoxicity was fitted to a dose–response function (using Pipeline Pilot) and CC50 values were determined.
Human whole blood was washed three times with three volumes of 0.9% NaCl and then resuspended in the same solution to a concentration of 0.5 x 10^8 cells/mL, as determined by the manual cell count in a Neubauer hemocytometer. The washed cells were then added to the 384-well compound-containing plates for a final volume of 50 µL. After a 10 min shake on a plate shaker, the plates were then incubated for 1 h at 37 °C. After incubation, the plates were centrifuged at 1,000g for 10 min to pellet cells and debris; 25 µL of the supernatant was then transferred to a polystyrene 384-well assay plate. Hemolysis was determined by measuring the supernatant absorbance at […] (OD405). The absorbance was measured using a Tecan M1000 Pro monochromator plate reader. HC10 and HC50 (concentration at 10% and 50% hemolysis, respectively) were calculated by curve fitting the inhibition values vs. log (concentration) using a sigmoidal dose–response function with variable fitting values for the top, bottom, and slope.
2.8. Real-time growth curves
Solutions of the compound at concentrations of 2, 4, and 16 µg/mL were tested each in triplicate against S. aureus ATCC 25923 [26]. Typically, in a 96-well plate were placed 10 µL of 40, 80, and 320 µg/mL stock solutions of compound, as well as 190 µL of a 5 x 10^5 CFU/mL of the selected bacterial suspension in brain heart infusion (BHI) broth. Positive controls containing only 200 µL of a 5 x 10^5 CFU/mL of bacterial suspension in BHI and negative controls containing only 200 µL of BHI broth were added. The plate was incubated at 37°C in a TECAN Spark Reader (Roche Diagnostic) and real-time […]

`C=C[C@]1(C)C[C@@H](OC(=O)CNCCCNCCCCCCCCCCNCCCNCC(=O)O[C@@H]2C[C@@](C)(C=C)[C@@H](O)[C@H](C)[C@]34CCC(=O)[C@H]3[C@@]2(C)[C@H](C)CC4)[C@]2(C)[C@H](C)CC[C@]3(CCC(=O)[C@H]32)[C@@H](C)[C@@H]1O.O=C(O)C(F)(F)F.O=C(O)C(F)(F)F.O=C(O)C(F)(F)F.O=C(O)C(F)(F)F` [Compound 9e, N^1,N^1′-(Decane-1,10-diyl)bis(N^3-(2-(((3aR,4R,5R,7S,8S,9R,9aS,12R)-8-hydroxy-4,7,9,12-tetramethyl-3-oxo-7-vinyldecahydro-4,9a-propanocyclopenta [8]annulen-5-yl)oxy)-2-oxoethyl)propane-1,3-diaminium) 2,2,2-trifluoroacetate] was tested, and the “Real-time bacterial growth inhibition” value [1] was “No such inhibition”, the MIC [2] was no more than 0.17 µM and the “Erythro/E.c.: fold change, ratio between intrinsic MIC of test compound and combination MIC” value ([3]; erythromycin at 2.7 µM) was 0.5. The “Erythro/E.c.: concentration required to restore erythromycin activity” value ([3]; erythromycin at 2.7 µM (2 µg/mL)) was 8.54 µM.

Reference: publication PMC10673369, “Preliminary SAR of Novel Pleuromutilin–Polyamine Conjugates” (Microorganisms, 2023)
